Measurements published in US8420335B2, “Inhibition of GASC1” (Kobenhavns Universitet, priority 2006, dated 2013).
Entries after “also recorded” stand apart in the source; their conditions may differ. Read-outs that look alike come from different tables or passages of the source.

Experiments:
GASC1 = target: T1, GASC1 (Homo sapiens, UniProt Q9H3R0); assay: Demethylation assay: recombinant His-GASC1 with bulk histones or H3K9me3 peptide, western blotting; assay type: biochemical
T1 construct: Full-length amino-terminally hexahistidine-tagged human GASC1 baculovirus transfer vector; made in house; host or cells: baculovirus-infected insect cells (pAcHLT-A transfer vector, Bakpak6)
T1 sequence (Q9H3R0 1-1056): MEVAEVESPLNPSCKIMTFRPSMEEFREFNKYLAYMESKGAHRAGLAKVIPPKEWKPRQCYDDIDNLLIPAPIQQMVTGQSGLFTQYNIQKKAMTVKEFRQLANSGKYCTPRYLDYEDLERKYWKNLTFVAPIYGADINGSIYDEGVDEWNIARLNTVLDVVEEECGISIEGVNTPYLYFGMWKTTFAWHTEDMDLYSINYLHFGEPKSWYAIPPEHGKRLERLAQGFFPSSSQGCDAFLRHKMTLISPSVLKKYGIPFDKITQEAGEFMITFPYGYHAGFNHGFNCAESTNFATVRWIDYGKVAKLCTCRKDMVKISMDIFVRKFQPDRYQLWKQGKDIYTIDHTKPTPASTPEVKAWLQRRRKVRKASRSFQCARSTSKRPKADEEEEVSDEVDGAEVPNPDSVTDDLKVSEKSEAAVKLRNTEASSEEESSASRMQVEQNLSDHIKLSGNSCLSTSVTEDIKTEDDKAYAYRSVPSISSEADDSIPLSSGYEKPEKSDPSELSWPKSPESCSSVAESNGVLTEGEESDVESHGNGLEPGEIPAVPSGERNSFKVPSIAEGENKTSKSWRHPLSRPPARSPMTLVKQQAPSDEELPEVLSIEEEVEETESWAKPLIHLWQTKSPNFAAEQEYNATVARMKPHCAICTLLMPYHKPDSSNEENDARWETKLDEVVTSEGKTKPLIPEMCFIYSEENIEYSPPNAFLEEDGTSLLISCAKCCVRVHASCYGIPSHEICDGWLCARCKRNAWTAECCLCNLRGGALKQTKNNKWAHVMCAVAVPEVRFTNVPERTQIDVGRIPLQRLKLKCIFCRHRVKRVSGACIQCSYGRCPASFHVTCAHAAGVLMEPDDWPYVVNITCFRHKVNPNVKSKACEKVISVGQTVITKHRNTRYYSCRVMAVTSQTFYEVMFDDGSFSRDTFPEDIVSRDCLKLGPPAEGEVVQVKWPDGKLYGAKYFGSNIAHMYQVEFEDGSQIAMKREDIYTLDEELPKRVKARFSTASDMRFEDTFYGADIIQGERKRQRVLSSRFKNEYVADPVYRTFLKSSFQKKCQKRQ

KYSE-150 cells = assay: Overnight quercetin treatment of KYSE-150 cells: H3K9me3 by immunofluorescence and western blotting, growth, senescence; assay type: cell-based, human
U2OS = assay: Quercetin treatment of U2OS cells: H3K9me3, senescent-like phenotype, growth; assay type: cell-based, human; settings: low/moderate GASC1 level
WI38 = assay: Quercetin treatment of WI38 cells: H3K9me3, senescent-like phenotype, growth; assay type: cell-based; settings: WI38, low/moderate GASC1 level
From the text: (§1) The biological effects of quercetin have previously been attributed to inhibition of topoisomerase I^43, modulation of protein and lipid kinase signalling pathways^44 and scavenging of reactive oxygen species^45, In light of the present findings it is tempting to speculate that the anti-cancer effect of quercetin might at least partially by explained by its inhibitory effect on GASC1 and other members of the JMJD2 subfamily.

KYSE-450 cells = assay: Quercetin treatment of KYSE-450 cells: H3K9me3, senescent-like phenotype, growth; assay type: cell-based, human; settings: KYSE-450, low/moderate GASC1 level
From the text: as §1

[1] = His-GASC1, bulk histones, co-factors FeSO4 and α-ketoglutarate, 30 min at 37° C., western blotting

SMILES: O=C(O)CNC(=O)C(=O)O [N-oxalylglycine]
- inhibition of GASC1-mediated demethylation of H3K9me3 (GASC1; [1]): able to inhibit the demethylation reaction effectively

SMILES: [Cl-].[Cl-].[Co+2] [CoCl2]
- inhibition of GASC1-mediated demethylation of H3K9me3 (GASC1): inhibit GASC1 demethylation activity; also recorded: able to inhibit the demethylation reaction effectively

SMILES: O=C(O)CN(CCN(CC(=O)O)CC(=O)O)CC(=O)O [EDTA]
- GASC1 demethylation of H3K9me3 in the presence of EDTA (GASC1; EDTA (chelating iron), 30 min at 37° C., western blotting): significantly reduced

SMILES: O=c1c(O)c(-c2ccc(O)c(O)c2)oc2cc(O)cc(O)c12 [quercetin]
- inhibition of GASC1-mediated demethylation of H3K9me3 (GASC1; [1]): able to effectively inhibit GASC1-mediated demethylation of H3K9me3 in vitro
- inhibition of GASC1-mediated demethylation of H3K9me3 (GASC1; His-GASC1, bulk histones, co-factors FeSO4 and α-ketoglutarate, 30 min at 37° C., western blotting, listed as quercetine): able to inhibit the demethylation reaction effectively
- growth rate (KYSE-150 cells; data not shown): marked decrease of growth rate
- phenotype (cell morphology, SAHFs, β-gal staining) (KYSE-150 cells; data not shown): senescent-like phenotype
- H3K9 trimethylation (KYSE-150 cells; immunofluorescence and western blotting): staggering increase in H3K9 trimethylation
- H3K9me3 increase, senescent-like phenotype and growth inhibition compared with KYSE-150 (U2OS): did not display the same increase in H3K9me3 nor the same senescent-like phenotype and growth inhibition
- H3K9me3 increase, senescent-like phenotype and growth inhibition compared with KYSE-150 (WI38): did not display the same increase in H3K9me3 nor the same senescent-like phenotype and growth inhibition
- H3K9me3 increase, senescent-like phenotype and growth inhibition compared with KYSE-150 (KYSE-450 cells): did not display the same increase in H3K9me3 nor the same senescent-like phenotype and growth inhibition

SMILES: O=S(=O)([O-])[O-].[Ni+2] [NiSO4]
- inhibition of GASC1-mediated demethylation of H3K9me3 (GASC1; [1]): inhibit GASC1 demethylation activity; also recorded: able to inhibit the demethylation reaction effectively
